Experimental data: US20130052172A1, “METHODS FOR DIAGNOSING AND TREATING CARDIAC DEFECTS” (priority 2011, published 2013)
Values joined by “and” are separate entries in the source; they are usually repeats but may differ in a detail not shown here. Equal values may be shown once. “Also recorded” adds a separate entry of the source.

Experiments:
Assay type in all cases: in vivo, rat
intestinal microbiota = assay: Fecal microbiota abundance by 16S/18S rRNA quantitative PCR
Description: In the following example, methods for quantifying microbiota abundance in rat feces are described. Fresh fecal pellets were obtained from each rat prior to (day 0) and at day 6 to 7 post treatment. Pellets were homogenized in 1 ml PBS. 200 μl of homogenate was used for microbial DNA isolation using a QIAamp DNA Stool Mini Kit (Qiagen, Valencia, Calif.). Isolated DNA samples were subjected to quantitative PCR using an iCycler (Bio-Rad, Hercules, Calif.) for microbial population enumeration. PCR reaction mixture consisted of 50% iQ SYBR Green Supermix (Bio-Rad), 0.4 μM forward and reverse primers, and 3.8% template solution in RNase/DNase free water. Primer sets specific for 16s and 18s rRNA genes of particular microbial phylum, class, genus, and species (M. smithii and L. plantarum) along with 20 reaction temperature and reference strains are detailed in FIG. 2 and Table 1.

leptin = assay: Plasma cytokine analysis (leptin); conditions: vancomycin in drinking water, d 6 vs d 0
Description: The concentration of cytokines in blood of rats treated with vancomycin was quantified to identify antibiotic-induced changes. […] Blood samples were kept on ice for 30 min and then centrifuged at 1000 g for 10 min at 4° C. to obtain plasma. Plasma samples were then analyzed to determine the concentration of 23 cytokines (Eve Technologies, Calgary, AB, Canada). Antibiotic was administered continuously via drinking water as described in example 1.

[1] = test system: metabolites known to be modified by intestinal microbiota; assay: Metabolomic mass spec analysis of blood metabolites; conditions: rats treated for 7 days
Source text: In this example, methods for assaying metabolite levels using mass spectrometry are described. Each sample received was accessioned into the Metabolon Laboratory Information Management System (LIMS) and was assigned by the LIMS a unique identifier, which was associated with the original source identifier only. This identifier was used to track all sample handling, tasks, results etc. The samples (and all derived aliquots) were bar-coded and tracked by the LIMS system. All portions of any sample were automatically assigned their own unique identifiers by the LIMS when a new task was created; the relationship of these samples was also tracked. All samples were maintained at −80° C. until processed.
The sample preparation process was carried out using the automated MicroLab STAR® system from Hamilton Company. Recovery standards were added prior to the first step in the extraction process for Quality Control (QC) purposes. […]
The LC/MS portion of the platform was based on a Waters ACQUITY UPLC and a Thermo-Finnigan LTQ mass spectrometer, which consisted of an electrospray ionization (ESI) source and linear ion-trap (LIT) mass analyzer. […] One aliquot was analyzed using acidic positive ion optimized conditions and the other using basic negative ion optimized conditions in two independent injections using separate dedicated columns. […]

## CN[C@H](CC(C)C)C(=O)N[C@H]1C(=O)N[C@@H](CC(N)=O)C(=O)N[C@H]2C(=O)N[C@H]3C(=O)N[C@H](C(=O)N[C@H](C(=O)O)c4cc(O)cc(O)c4-c4cc3ccc4O)[C@H](O)c3ccc(c(Cl)c3)Oc3cc2cc(c3O[C@@H]2O[C@H](CO)[C@@H](O)[C@H](O)[C@H]2O[C@H]2C[C@](C)(N)[C@H](O)[C@H](C)O2)Oc2ccc(cc2Cl)[C@H]1O [vancomycin, Vancomycin]
Intestinal microbiota; oral antibiotic in drinking water, Dahl S rats
  total bacterial/microbial numbers in feces: reduced total bacterial numbers; also recorded: reduced total microbial numbers; also recorded: reduce overall bacterial numbers
Intestinal microbiota; oral antibiotic treatment
  change of Bacilli abundance in feces: increased two fold
  change of Lactobacillales abundance in feces: increase abundance
  change of Proteobacteria abundance in feces: increase abundance
  increase of Proteobacteria in feces: 120 fold
leptin
  decrease in circulating leptin: 38±4% and 38%
[1]
  metabolites of tryptophan, phenylalanine and tyrosine in blood: decreased metabolites known to be modified by intestinal microbiota
  phenyllactate in blood: increased
